Key:
[1] = target: T1, Cox-1 (Rattus norvegicus, UniProt Q63921); assay: COXs inhibition, rat whole blood Cox-1; format: cell-based; details: read-out: ratWB Cox-1 IC50
T1 construct: from tissue; host or cells: rat whole blood ('ratWB')
T1 sequence (Q63921 27-602): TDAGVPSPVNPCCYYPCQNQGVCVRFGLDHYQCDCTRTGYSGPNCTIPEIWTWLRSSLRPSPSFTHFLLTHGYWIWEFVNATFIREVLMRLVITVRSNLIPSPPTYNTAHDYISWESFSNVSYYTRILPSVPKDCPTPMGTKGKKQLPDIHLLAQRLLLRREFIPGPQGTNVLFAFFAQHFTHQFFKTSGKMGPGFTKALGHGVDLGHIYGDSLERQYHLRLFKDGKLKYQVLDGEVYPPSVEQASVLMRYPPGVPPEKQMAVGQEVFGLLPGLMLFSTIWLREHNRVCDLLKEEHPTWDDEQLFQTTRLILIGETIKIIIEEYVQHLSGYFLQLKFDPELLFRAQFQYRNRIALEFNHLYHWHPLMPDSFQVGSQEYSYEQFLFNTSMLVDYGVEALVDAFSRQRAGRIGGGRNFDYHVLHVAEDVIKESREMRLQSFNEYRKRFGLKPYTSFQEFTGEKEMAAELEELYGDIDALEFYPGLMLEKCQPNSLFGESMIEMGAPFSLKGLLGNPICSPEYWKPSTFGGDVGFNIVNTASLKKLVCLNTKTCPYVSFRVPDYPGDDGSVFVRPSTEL
Protocol: Methods for Testing Compounds on Inhibiting COXs
Activities of inhibiting COXs can be investigated by the manner described in Proc. Natl. Acad. Sci. USA 96, 7563, […].
As a result, compounds of the present invention are less or no potent COXs inhibitors. A result of COXs inhibition of the selected compounds (Example Nos. 1, 3, 12, 188, 474, 497, 507, 513, 527, 533, 562, and 638) are: ratWB Cox-1 IC50>30 μM and ratWB IC50>30 μM.

[2] = target: T2, human BKαβ1 channels (Homo sapiens, UniProt Q12791); assay: BK current in CHO cells expressing human BKαβ1 (PatchXpress whole-cell patch clamp), EC100; format: cell-based; details: drug concentration causing 100% increase of BK current
T2 construct: expressed in transfected cells; host or cells: CHO cells (G418 and hygromycin selection)
T2 sequence (Q12791 whole entry): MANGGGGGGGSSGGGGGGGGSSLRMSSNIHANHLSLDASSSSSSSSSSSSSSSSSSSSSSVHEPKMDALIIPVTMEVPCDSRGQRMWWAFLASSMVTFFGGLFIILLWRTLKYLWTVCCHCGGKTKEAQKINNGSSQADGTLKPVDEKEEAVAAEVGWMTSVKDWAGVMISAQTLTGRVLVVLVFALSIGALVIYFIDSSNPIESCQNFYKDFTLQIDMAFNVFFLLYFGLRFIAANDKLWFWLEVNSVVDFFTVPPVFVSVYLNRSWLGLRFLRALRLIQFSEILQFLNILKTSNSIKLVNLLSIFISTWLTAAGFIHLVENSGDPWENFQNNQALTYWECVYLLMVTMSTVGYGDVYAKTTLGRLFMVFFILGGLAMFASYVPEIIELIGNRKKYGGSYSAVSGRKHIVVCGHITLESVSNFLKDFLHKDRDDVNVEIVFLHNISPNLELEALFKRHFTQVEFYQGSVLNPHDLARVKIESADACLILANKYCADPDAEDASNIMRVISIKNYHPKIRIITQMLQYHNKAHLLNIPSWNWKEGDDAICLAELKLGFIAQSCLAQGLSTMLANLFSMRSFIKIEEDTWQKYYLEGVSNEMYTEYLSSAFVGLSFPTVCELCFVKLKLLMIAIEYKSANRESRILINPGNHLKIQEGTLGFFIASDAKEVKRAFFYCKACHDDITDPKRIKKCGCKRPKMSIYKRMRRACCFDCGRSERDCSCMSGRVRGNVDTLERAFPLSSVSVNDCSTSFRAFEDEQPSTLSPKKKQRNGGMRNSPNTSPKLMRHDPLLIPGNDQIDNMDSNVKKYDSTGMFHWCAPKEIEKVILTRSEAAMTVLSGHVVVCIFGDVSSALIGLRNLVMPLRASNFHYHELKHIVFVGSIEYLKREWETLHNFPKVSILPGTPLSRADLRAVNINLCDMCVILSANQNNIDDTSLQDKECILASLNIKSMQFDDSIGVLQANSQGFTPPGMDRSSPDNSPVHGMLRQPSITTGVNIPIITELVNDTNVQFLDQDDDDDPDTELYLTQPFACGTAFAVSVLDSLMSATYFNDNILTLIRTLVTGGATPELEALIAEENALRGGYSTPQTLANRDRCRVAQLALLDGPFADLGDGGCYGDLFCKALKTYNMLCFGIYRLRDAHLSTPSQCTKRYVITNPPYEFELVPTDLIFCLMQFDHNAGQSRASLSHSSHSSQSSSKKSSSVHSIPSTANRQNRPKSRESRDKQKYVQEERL
T2 sequence (Q16558 whole entry partner): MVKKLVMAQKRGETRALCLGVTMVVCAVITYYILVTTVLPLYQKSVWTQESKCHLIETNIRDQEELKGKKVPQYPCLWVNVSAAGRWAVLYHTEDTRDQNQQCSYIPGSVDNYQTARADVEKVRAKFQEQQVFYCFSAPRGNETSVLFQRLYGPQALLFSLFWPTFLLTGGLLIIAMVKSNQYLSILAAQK

[3] = system: rhythmic bladder contractions; assay: Inhibitory effect on the rhythmic bladder contractions in anesthetized rats; format: in vivo, rat; details: anesthetized rats; 10 mg/kg; intravenous
Description: Inhibitory Effect on the Rhythmic Bladder Contractions in Anesthetized Rats
Female Sprague-Dawley rats (9 to 12 weeks old weighing between 200 to 300 g) were anethethized with urethane (subcutaneously administered with a dose of 1.2 g/kg). Both ureters were cannulated to excrete urine. A cannula was inserted into the bladder via the urethra and secured with a ligature around the urethral opening and connected to a three-way stopcock. The ends were connected to a pressure transducer for measurement of bladder pressure and to a infusion pump for intravesical infusion of saline. A cannula was inserted in the femoral vein for intravenous (i.v.) drug administration. Following a over 20 minute post-surgical stabilization period and emptying of urine in the bladder, saline was infused into the bladder (50 μl/min) to evoke the micturition reflex. After the rhythmic bladder contractions had occurred, the saline infusion rate into the bladder was changed to 5 μl/min in order to maintain these contractions. Compounds were administered after stable rhythmic bladder contraction was obtained over 15 minutes. All compounds were dissolved in saline containing 10% dimethyl acetamide for intravenous administration (1 ml/kg). When iberiotoxin, a large conductance calcium-activated K channel blocker (0.15 mg/kg, i.v.) was administered for comparison purposes, it was administered 5 minutes before drug administration.
The frequencies (contractions per minute) of rhythmic bladder contractions were calculated for 10 minutes before and after drug administration. The efficacy of compounds expressed as percent of inhibition in frequency, which calculated from the following formula: (1−frequency after dosing/frequency before dosing)×100(%)

Compound	IC50 [1]	EC100 [2]	percent of inhibition in frequency of rhythmic bladder contractions [3]
CC(C)(Oc1cc(N2CCCCC2)nc(-c2ccc(Cl)c(F)c2)n1)C(=O)O [Example 1]	> 30 µM		
O=C(O)COc1cc(N2CCc3ccccc32)nc(-c2ccc(Cl)c(F)c2)n1 [Example 3]	> 30 µM		
O=C(O)COc1cc(-c2ccc(Cl)c(F)c2)nc(-c2ccc(F)cc2)n1 [Example 188]	> 30 µM		
COc1ccccc1-c1cc(OC2(C(=O)[O-])CCCC2)nc(-c2ccc(Cl)c(F)c2)n1.[Na+] [Example 565]		0.28 µM	B (B: 50 > inhibition(%) > 30)
COCCOc1cc(F)ccc1-c1cc(OC2(C(=O)[O-])CC2)nc(-c2ccc(F)c(F)c2)n1.[Na+] [Example 619]		0.49 µM	B (B: 50 > inhibition(%) > 30)
CCOc1cc(-c2nc(-c3ccc(F)cc3)nc(OC3(C(=O)[O-])CC3)c2C)ccc1F.[Na+] [Example 977]		0.13 µM	B (B: 50 > inhibition(%) > 30)
Cc1ccc(Cl)cc1-c1nc(OC2(C(=O)[O-])CC2)nc(-c2ccc(Cl)cc2)n1.[Na+] [Example 1091]		0.03 µM	B (B: 50 > inhibition(%) > 30)
O=C([O-])C1(Oc2cc(N3CCc4cc(F)ccc4C3)nc(-c3ccc(F)cc3)n2)CC1.[Na+] [Example 1110]		0.3 µM	B (B: 50 > inhibition(%) > 30)
CCO[C@H]1CCCN(c2nc(OC3(C(=O)[O-])CC3)cc(-c3cc(Cl)c(Cl)s3)n2)C1.[Na+] [Example 1227]		0.37 µM	B (B: 50 > inhibition(%) > 30)

Reference: patent US8575338B2, “Pyrimidine, pyridine and triazine derivatives as maxi-K channel openers” (Mitsubishi Tanabe Pharma Corporation, priority 2008, dated 2013)
